From ChEMBL document CHEMBL6134930, “Discovery of AB801, a Potent and Selective Inhibitor of AXL Receptor Tyrosine Kinase for Use in Cancer Therapy” (J Med Chem, 2025)
Calls of active or inactive are those of the source. No cut-off for these calls is given here.

Key:
[1] = Metabolic stability in rat hepatocytes assessed as intrinsic clearance measured per 10^6 cells; format: ADME, cell-based, Hepatocyte; settings: read-out: CLH
[2] = AUCinf in Sprague-Dawley rat at 2 mg/kg, po measured up to 8 hrs by LC-MS/MS analysis; format: ADME, organism-based; settings: in vivo
[3] = Efflux ratio in human Caco-2 cells; format: ADME, cell-based
[4] = Metabolic stability in human hepatocytes assessed as intrinsic clearance measured per 10^6 cells; format: ADME, cell-based, Hepatocyte; settings: read-out: CLH
[5] = Apparent permeability of compound from apical to basolateral side in human Caco-2 cells; format: ADME, cell-based; settings: read-out: permeability
hERG (KCNH2) = hERG (KCNH2) (Homo sapiens, UniProt Q12809); experiment: Inhibition of hERG at 10 uM by high throughput cell based patch clamp assay; format: toxicity
Chain of hERG (KCNH2) (Q12809 whole entry): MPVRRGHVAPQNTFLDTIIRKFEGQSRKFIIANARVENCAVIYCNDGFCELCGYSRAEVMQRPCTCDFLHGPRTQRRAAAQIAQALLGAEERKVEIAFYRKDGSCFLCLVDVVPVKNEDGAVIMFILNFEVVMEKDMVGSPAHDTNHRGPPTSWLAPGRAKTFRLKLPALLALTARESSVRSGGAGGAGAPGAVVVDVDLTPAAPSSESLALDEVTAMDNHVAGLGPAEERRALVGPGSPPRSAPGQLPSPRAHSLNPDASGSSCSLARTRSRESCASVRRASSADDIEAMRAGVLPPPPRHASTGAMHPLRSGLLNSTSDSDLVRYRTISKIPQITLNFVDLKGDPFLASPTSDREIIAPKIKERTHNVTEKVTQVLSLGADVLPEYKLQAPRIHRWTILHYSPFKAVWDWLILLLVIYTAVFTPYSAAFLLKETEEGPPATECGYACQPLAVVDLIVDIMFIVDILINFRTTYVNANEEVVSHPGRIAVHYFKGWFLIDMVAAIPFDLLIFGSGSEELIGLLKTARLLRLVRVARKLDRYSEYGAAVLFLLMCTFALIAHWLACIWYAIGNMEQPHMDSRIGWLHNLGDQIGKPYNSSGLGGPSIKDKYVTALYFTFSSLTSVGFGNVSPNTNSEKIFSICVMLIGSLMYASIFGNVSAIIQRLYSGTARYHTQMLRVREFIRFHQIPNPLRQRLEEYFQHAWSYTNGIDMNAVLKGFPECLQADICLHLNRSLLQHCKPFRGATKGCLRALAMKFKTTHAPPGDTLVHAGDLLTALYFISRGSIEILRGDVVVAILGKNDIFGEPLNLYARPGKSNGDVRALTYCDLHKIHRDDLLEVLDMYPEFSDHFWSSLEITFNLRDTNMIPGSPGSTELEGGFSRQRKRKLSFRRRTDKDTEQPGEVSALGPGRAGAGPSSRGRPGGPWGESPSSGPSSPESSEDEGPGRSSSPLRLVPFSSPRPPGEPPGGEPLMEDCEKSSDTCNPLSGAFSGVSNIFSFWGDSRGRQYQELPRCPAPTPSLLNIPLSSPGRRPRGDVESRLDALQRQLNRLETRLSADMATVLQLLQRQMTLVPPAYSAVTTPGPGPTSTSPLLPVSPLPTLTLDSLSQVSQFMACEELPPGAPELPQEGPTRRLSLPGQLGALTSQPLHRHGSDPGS

CYP1A2 = biological target: T1, CYP1A2 (Homo sapiens, UniProt P05177); experiment: Time dependent inhibition of CYP1A2 (unknown origin) at 30 uM measured after 30 mins relative to control; format: ADME; settings: read-out: TDI
T1 sequence (P05177 whole entry): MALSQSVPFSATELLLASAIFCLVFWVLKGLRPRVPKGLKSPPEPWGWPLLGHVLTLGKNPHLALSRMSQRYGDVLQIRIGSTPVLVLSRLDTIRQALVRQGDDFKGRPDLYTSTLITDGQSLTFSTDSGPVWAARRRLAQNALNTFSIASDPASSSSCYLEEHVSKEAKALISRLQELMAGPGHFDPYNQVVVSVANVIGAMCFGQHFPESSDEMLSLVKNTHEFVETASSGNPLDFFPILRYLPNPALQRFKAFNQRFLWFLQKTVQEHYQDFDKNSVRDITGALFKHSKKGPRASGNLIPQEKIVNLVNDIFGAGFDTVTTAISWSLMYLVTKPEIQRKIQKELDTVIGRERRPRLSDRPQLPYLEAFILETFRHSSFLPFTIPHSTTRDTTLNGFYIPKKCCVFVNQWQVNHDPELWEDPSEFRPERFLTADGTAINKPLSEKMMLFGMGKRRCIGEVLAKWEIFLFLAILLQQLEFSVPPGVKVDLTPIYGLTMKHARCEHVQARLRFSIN

CYP2C8 = biological target: T2, CYP2C8 (Homo sapiens, UniProt P10632); experiment: Time dependent inhibition of CYP2C8 (unknown origin) at 30 uM measured after 30 mins relative to control; format: ADME; settings: read-out: TDI
T2 sequence (P10632 whole entry): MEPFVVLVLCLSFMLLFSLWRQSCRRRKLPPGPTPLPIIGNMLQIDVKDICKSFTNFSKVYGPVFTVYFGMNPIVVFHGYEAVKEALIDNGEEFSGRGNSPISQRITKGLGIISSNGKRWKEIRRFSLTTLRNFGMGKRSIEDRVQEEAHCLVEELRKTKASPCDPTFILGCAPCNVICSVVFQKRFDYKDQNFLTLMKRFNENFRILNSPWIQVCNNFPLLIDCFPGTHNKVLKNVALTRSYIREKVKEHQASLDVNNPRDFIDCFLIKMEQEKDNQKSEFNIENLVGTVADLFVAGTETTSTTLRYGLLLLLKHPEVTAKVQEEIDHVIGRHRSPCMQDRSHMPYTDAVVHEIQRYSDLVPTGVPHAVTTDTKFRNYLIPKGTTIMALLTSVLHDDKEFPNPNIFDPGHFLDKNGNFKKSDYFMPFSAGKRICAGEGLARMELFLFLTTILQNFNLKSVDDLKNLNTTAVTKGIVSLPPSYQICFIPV

CYP2C9 = CYP2C9 (Homo sapiens, UniProt P11712); experiment: Time dependent inhibition of CYP2C9 (unknown origin) at 30 uM measured after 30 mins relative to control; format: ADME; settings: read-out: TDI
Chain of CYP2C9 (P11712 whole entry): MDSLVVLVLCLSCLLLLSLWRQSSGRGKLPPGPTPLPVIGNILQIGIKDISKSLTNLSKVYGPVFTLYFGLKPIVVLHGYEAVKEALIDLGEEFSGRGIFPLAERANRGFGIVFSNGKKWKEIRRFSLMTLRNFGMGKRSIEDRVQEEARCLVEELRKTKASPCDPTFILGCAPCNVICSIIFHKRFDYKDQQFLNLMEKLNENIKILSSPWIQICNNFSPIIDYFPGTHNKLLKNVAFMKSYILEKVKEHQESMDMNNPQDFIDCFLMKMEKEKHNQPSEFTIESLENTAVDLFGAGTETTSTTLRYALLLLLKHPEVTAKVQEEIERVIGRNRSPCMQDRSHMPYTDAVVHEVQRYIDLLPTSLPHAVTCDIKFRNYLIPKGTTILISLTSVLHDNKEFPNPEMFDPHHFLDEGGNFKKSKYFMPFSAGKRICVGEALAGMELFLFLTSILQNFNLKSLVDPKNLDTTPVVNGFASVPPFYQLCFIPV

CYP2C19 = CYP2C19 (Homo sapiens, UniProt P33261); experiment: Time dependent inhibition of CYP2C19 (unknown origin) at 30 uM measured after 30 mins relative to control; format: ADME; settings: read-out: TDI
Chain of CYP2C19 (P33261 whole entry): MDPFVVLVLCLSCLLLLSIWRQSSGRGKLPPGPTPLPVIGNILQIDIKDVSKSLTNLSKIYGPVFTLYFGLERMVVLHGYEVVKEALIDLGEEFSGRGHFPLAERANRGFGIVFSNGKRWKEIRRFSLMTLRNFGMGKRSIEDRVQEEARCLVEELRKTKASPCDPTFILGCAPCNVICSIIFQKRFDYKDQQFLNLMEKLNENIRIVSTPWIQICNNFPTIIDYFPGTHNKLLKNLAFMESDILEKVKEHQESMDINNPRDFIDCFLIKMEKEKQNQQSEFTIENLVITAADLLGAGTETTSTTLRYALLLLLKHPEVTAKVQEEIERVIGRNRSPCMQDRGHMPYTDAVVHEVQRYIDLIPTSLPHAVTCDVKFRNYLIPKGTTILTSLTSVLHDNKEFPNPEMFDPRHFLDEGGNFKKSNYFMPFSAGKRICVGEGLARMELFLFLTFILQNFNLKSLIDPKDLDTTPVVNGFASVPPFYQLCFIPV

CYP3A4 [6] = biological target: T3, CYP3A4 (Homo sapiens, UniProt P08684); experiment: Time dependent inhibition of CYP3A4 (unknown origin) using midazolam as substrate at 30 uM measured after 30 mins relative to control; format: ADME; settings: probe midazolam, read-out: TDI
T3 sequence (P08684 whole entry): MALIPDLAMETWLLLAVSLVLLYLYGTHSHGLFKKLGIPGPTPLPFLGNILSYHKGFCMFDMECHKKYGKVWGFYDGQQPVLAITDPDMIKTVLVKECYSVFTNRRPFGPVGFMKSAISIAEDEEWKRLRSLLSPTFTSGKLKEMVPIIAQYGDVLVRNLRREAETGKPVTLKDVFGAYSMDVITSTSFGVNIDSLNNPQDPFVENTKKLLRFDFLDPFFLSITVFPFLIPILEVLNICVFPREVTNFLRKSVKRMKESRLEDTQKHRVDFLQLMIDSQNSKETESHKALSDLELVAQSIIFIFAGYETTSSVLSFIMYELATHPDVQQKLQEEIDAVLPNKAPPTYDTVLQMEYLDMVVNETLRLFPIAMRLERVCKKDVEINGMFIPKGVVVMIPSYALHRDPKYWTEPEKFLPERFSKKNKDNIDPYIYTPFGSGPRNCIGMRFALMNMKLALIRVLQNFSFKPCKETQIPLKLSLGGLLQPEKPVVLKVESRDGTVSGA

CYP3A4 [7] = biological target: T3, CYP3A4; experiment: Time dependent inhibition of CYP3A4 (unknown origin) using testosterone as substrate at 30 uM measured after 30 mins relative to control; format: ADME; settings: probe testosterone, read-out: TDI
Cytochrome P450 2C9 = Cytochrome P450 2C9 (Homo sapiens, UniProt P11712); experiment: Inhibition of CYP2C9 (unknown origin) measured after 30 mins; format: ADME
Chain of Cytochrome P450 2C9 (P11712 whole entry): as the sequence (P11712 whole entry) above

Cytochrome P450 2D6 = Cytochrome P450 2D6 (Homo sapiens, UniProt P10635); experiment: Inhibition of CYP2D6 (unknown origin) measured after 30 mins; format: ADME
Chain of Cytochrome P450 2D6 (P10635 whole entry): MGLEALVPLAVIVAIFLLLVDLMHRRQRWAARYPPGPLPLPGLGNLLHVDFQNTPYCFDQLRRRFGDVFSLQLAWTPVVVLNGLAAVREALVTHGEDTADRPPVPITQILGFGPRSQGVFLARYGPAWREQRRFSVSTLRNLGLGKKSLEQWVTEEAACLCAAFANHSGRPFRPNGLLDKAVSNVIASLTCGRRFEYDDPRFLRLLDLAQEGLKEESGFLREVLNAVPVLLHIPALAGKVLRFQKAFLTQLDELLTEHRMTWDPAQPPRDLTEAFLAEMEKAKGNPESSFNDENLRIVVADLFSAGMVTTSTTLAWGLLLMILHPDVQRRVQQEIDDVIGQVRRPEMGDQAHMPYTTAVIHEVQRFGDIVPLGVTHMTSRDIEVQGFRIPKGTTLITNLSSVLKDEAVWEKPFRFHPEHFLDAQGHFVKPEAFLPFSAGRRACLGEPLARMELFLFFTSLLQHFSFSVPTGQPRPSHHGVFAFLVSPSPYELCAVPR

Cytochrome P450 3A4 = Cytochrome P450 3A4 (Homo sapiens, UniProt P08684); experiment: Inhibition of CYP3A4 (unknown origin) using midazolam as substrate measured after 30 mins; format: ADME
Chain of Cytochrome P450 3A4 (P08684 whole entry): as the sequence (P08684 whole entry) above

[8] = Selectivity ratio, ratio of Ki for MERTK (unknown origin) to Ki for AXL (unknown origin)
[9] = Selectivity ratio, ratio of Ki for DRAK1 (unknown origin) to Ki for AXL (unknown origin)
[10] = Selectivity ratio, ratio of Ki for HPK1 (unknown origin) to Ki for AXL (unknown origin)
786-0 [11] = experiment: Anti-tumor activity against human 786-0 cells xenografted in mouse model assessed as tumor growth inhibition at 10 mg/kg, po once daily for 15 days; format: functional, organism-based; settings: time 15.0 day
786-0 [12] = experiment: Anti-tumor activity against human 786-0 cells xenografted in mouse model assessed as tumor growth inhibition in presence of sunitinib at 30 mg/kg, po once daily for 15 days; format: functional, organism-based; settings: time 15.0 day
786-0 [13] = experiment: Anti-tumor activity against human 786-0 cells xenografted in mouse model assessed as tumor growth inhibition in presence of sunitinib at 10 mg/kg, po once daily for 15 days; format: functional, organism-based; settings: time 15.0 day
[14] = Toxicity in mouse xenografted with human 786-0 cells assessed as body weight in presence of sunitinib at 30 mg/kg, po once daily for 15 days; format: organism-based; settings: in vivo, 360 h, time 15 day
[15] = Toxicity in mouse xenografted with human 786-0 cells assessed as body weight in presence of sunitinib at 10 mg/kg, po once daily for 15 days; format: organism-based; settings: in vivo, 360 h, time 15 day
[16] = Half life in human (healthy individuals) at 30 mg, single oral dose; format: ADME; settings: in vivo
[17] = Tmax in human (healthy individuals) at 30 mg, single oral dose; format: ADME; settings: in vivo
[18] = Cmax in human (healthy individuals) at 10 mg, single oral dose measured uo to 120 hrs; format: ADME; settings: in vivo
[19] = Cmax in human (healthy individuals) at 270 mg, single oral dose measured uo to 120 hrs; format: ADME; settings: in vivo
[20] = AUC (0 to 24 hrs) in human (healthy individuals) at 10 mg, single oral dose; format: ADME; settings: in vivo
[21] = AUC (0 to 24 hrs) in human (healthy individuals) at 30 mg, single oral dose; format: ADME; settings: in vivo
[22] = AUC (0 to 24 hrs) in human (healthy individuals) at 90 mg, single oral dose; format: ADME; settings: in vivo
[23] = AUC (0 to 24 hrs) in human (healthy individuals) at 270 mg, single oral dose; format: ADME; settings: in vivo
[24] = AUC (0 to 120 hrs) in human (healthy individuals) at 30 mg, single oral dose; format: ADME; settings: in vivo
[25] = AUC (0 to 120 hrs) in human (healthy individuals) at 90 mg, single oral dose; format: ADME; settings: in vivo

SMILES: Cc1cccnc1-c1ccc(-c2n[nH]c3ncc(-c4ccc5c(c4)CC[C@@H](N4C6COCC4C6)CC5)cc23)nc1
- hepatocyte CLint [1]: 20 µL/min/1e6 cells
- AUC(0-inf) [2]: 1800 ng·h/mL
- efflux ratio [3]: 1.9
- hepatocyte CLint [4]: 1.8 µL/min/1e6 cells
- Papp A→B [5]: 1.7 ×10⁻⁶ cm/s
- inhibition at 10 µM (hERG (KCNH2)): 56%
- inhibition at 0.5 h, 30 µM (CYP1A2): 0%
- inhibition at 0.5 h, 30 µM (CYP2C8): 0%
- inhibition at 0.5 h, 30 µM (CYP2C9): 10%
- inhibition at 0.5 h, 30 µM (CYP2C19): 4.1%
- inhibition at 0.5 h, 30 µM (CYP3A4 [6]): 16%
- inhibition at 0.5 h, 30 µM (CYP3A4 [7]): 16%
- IC50 (Cytochrome P450 2C9): 91 µM
- IC50 (Cytochrome P450 2D6): 11 µM
- IC50 (Cytochrome P450 3A4): 17 µM
- Ratio Ki [8]: 880
- Ratio Ki [9]: 47
- Ratio Ki [10]: 280
- Activity (786-0 [11]): inactive
- Activity (786-0 [12]): Active
- Activity (786-0 [13]): Active
- Activity [14]: Non-toxic
- Activity [15]: Non-toxic
- half-life [16]: 72 h
- Tmax [17]: 8 h
- Cmax [18]: 3 ng/mL
- Cmax [19]: 153 ng/mL
- AUC(0-t) [20]: 55 ng·h/mL
- AUC(0-t) [21]: 189 ng·h/mL
- AUC(0-t) [22]: 707 ng·h/mL
- AUC(0-t) [23]: 2580 ng·h/mL
- AUC(0-t) [24]: 614 ng·h/mL
- AUC(0-t) [25]: 2090 ng·h/mL
